Paper PMC11695783 (Frontiers in Pharmacology, 2024)
Converted amounts (≈) assume the structure as drawn. “And” between values parts separate entries of the source, which are not always exact repeats. Equal entries are not always repeated. Structures can show the parent of a compound that is named as a salt.

What was measured:
IFN-γ = IFN-γ in BALF of M. pneumoniae-infected mice (ELISA); type: in vivo, BALB/c mice; conditions: tiamulin 40 mg/kg PO (fumarate soluble powder); for IFN-γ in BALF (AV): group AV; for IFN-γ in BALF: individual mice
Method: (§1) Adult BALB/c mice (20–22 g) were divided into a control group, a positive group, and compound 16C groups at low (20 mg/kg), medium (40 mg/kg), and high-dose (80 mg/kg) levels and oral and intramuscular tiamulin treatment groups (40 mg/kg). We formulated the above dose range based on the dose at which tiamulin was approved for injection (10–20 mg/kg) and the dose previously reported (45 mg/kg) ([EMA, 1999]; [Xiao et al., 2016]). In summary, we selected similar doses for compound 16C in vivo study. 40 mg/kg was used as an intermediate value, one-half of it as a low dose, and two times of it as a high dose. To prepare the challenge solution, logarithmic phase culture suspensions were centrifuged at 1700 g for 10 min, and the pellets were suspended in sterile PBS to obtain 1 × 10^9 CFU/mL. Before the challenge, mice were anesthetized with tribromoethanol (250 mg/kg, IP). Mice in the control groups were intratracheally inoculated with sterile PBS, whereas mice in the other groups were intratracheally challenged with 50 μL (1 × 10^9 CFU/mL) M. pneumoniae suspension once a day for 3 days. Compound 16C and tiamulin (tiamulin-IM group) dissolved using the method mentioned in pharmacokinetic studies, and the tiamulin fumarate soluble powder was dissolved in ddH2O for oral administration. After the final challenge, antibiotics were administered at low, medium, and high-dose levels (see above) at 10 a.m. and 10 p.m. daily for 4 consecutive days. Normal saline containing 5% DMSO and 5% Tween-80 was administered as control and positive groups by thigh intramuscular injection. To compare the efficacy of compound 16C and tiamulin under the same route of administration, we used the original tiamulin for intramuscular administration in the same formulation. On the other hand, tiamulin fumarate soluble powder, approved for oral administration to treat animal mycoplasma diseases in China, was administered to mice by gavage. Based on a clinical study of lefamulin in community-acquired bacterial pneumonia (CABP), subjects were administered twice a day and the 96 ± 24 h of starting treatment was an essential point for early clinical response (ECR) ([Paukner et al., 2022]). We therefore stopped treatment at 96 h and sampled at 192 h to explore whether the disease worsened after cessation of treatment. Bronchoalveolar lavage fluid (BALF) and lungs were collected at 0, 96, 192 h (Samples of 0 h were collected before starting treatment, and mice were fed ad libitum without drug treatment during 96–192 h) after the first dose, BALF for cytokine and cytological analysis and lung for histopathological evaluation.
(§2) Bronchoalveolar lavage was performed according to a standardized method ([Van Hoecke et al., 2017]). BALF was obtained following infusion of 0.5 mL PBS via tracheal cannulation into the lung twice (total 1 mL), and 200 µL was used for mycoplasma counts. The remaining BALF was centrifuged at 300 g for 10 min to separate the debris. The supernatants were stored at −80°C, and the debris was resuspended in the same volume of PBS containing red blood cell lysis buffer. A hemocytometer was used to count total cell numbers in BALF, and cell smears (Diff-Quik staining) were prepared to calculate the percentages of neutrophils, macrophages, and lymphocytes. IFN-γ, TNF-α, and CXCL1 levels in BALF samples were assessed using commercial ELISA kits using guidelines recommended by the manufacturer (Elabscience, Wuhan, China). Parallel data for each experimental group at each time point were obtained from six different mice.

TNF-α = TNF-α in BALF of M. pneumoniae-infected mice (ELISA); type: in vivo, BALB/c mice; conditions: tiamulin 40 mg/kg PO (fumarate soluble powder), individual mice
Method: as §1, §2

CXCL1 = CXCL1 in BALF of M. pneumoniae-infected mice (ELISA); type: in vivo, BALB/c mice; conditions: tiamulin 40 mg/kg PO (fumarate soluble powder), individual mice
Method: as §1, §2

[1] = system: Mycoplasma pneumoniae-infected mice (lung tissue); assay: Histopathological assessment of lung tissue (HPS, response and recovery rates) in M. pneumoniae-infected mice; type: in vivo, BALB/c mice; parameters: HPS value (mean) / HPS: scale not given here; conditions: tiamulin 40 mg/kg PO (fumarate soluble powder); for HPS: individual mice
Method: as §1
Lung tissues were collected at 0, 96, and 192 h following drug administration. Lungs were collected from 6 mice in each group at 96 h and 13–15 mice in each group at 192 h. In addition, the lungs of 8 untreated infected mice were taken at 0 h as initial controls. Lung tissues were fixed in 4% paraformaldehyde, and whole-mount sections of paraffin-embedded lungs were stained with hematoxylin and eosin (H&E). The histopathologic score (HPS) was determined according to published protocols by a single pathologist who was unaware of the treatment status and groups of the animals ([Cimolai et al., 1992]). The HPS was based on individual grading of peribronchiolar/bronchial infiltrate, bronchiolar/bronchial luminal exudate, perivascular infiltrate, and parenchymal pneumoniae.

Mycoplasma pneumoniae = assay: In vivo pharmacodynamic study: Mycoplasma pneumoniae loads in BALF of infected mice; parameters: species or system BALB/c mice; conditions: tiamulin 40 mg/kg PO (fumarate soluble powder); for MPcounts in BALF (AV): group AV; for MPcounts in BALF: individual mice
Method: as §1, §2

[2] = system: Mycoplasma pneumoniae strain M129 (ATCC 29342); assay: Time-kill curves; type: cell-based; parameters: M. pneumoniae count in time-kill curve: unit not given here
Method: (§3) Mycoplasma pneumoniae strain M129 (ATCC 29342) was obtained from American Type Culture Collection (Manassas, VA, United States) and cultured at 37°C in the presence of 5% CO2 in the modified SP-4 liquid medium (pH 7.4) containing 2.1% (w/v) CM1166 mycoplasma broth base medium (Oxoid, Hants, United Kingdom), 20% (v/v) fetal bovine serum (FBS, Bioexplorer, CO, United States), 0.4% yeast extract (Oxoid), 0.55% (w/v) CMRL 1066 w/L-glutamine culture media powder (MyBioSource, San Diego, CA, United States), 1% D-glucose (Macklin) and 0.004% phenol red (Macklin). […] The solid medium is based on the above formula with the addition of 1% agar, and the characteristic fried egg-like colonies were used for experiments following incubation for 7 d on plates.
The tubes were incubated at 37°C in 5% CO2 for 72 h, and 200 µL of the culture was removed every 12 h for 10-fold serial dilutions. The diluted cultures were plated on plates for further culture and counted after 7 d. The experiment was repeated three times.

[3] = system: Mycoplasma pneumoniae strain M129 (ATCC 29342); assay: Susceptibility assay (broth microdilution MIC, MBC); type: cell-based
Method: as §3
The broth microdilution MIC procedure was performed according to standardized methods for microdilution susceptibility testing of mycoplasma species ([Waites et al., 2012]). […] The concentration of organisms should be determined to approximately 10^6 CFU/mL prior to inoculation into 96-well plates. Due to the action of phenol red, the acidic metabolites of microbial growth can turn the medium yellow. […] The MBC assays were performed based on MICs following endpoint reading and the liquid in the high-concentration wells was removed for bacterial counting.

## C=C[C@]1(C)C[C@@H](OC(=O)CSCCN(CC)CC)[C@]2(C)[C@H](C)CC[C@]3(CCC(=O)[C@H]32)[C@@H](C)[C@@H]1O [Tiamulin-PO, Tiamulin fumarate, reference compound]
IFN-γ; 96 h
  IFN-γ in BALF (AV): 32.2599 pg/mL
  IFN-γ in BALF: 34.8842 pg/mL and 17.3704 pg/mL and 63.2217 pg/mL and 29.659 pg/mL and 25.3118 pg/mL and 23.1122 pg/mL
IFN-γ; 192 h
  IFN-γ in BALF (AV): 34.0801 pg/mL
  IFN-γ in BALF: 37.2747 pg/mL and 51.8224 pg/mL and 27.2214 pg/mL and 28.4425 pg/mL and 30.8711 pg/mL and 28.8485 pg/mL
TNF-α; 96 h
  TNF-α in BALF: 13.0598 pg/mL and 17.5743 pg/mL and 24.463 pg/mL and 20.81 pg/mL and 21.310 pg/mL and 10.7269 pg/mL
TNF-α; 192 h
  TNF-α in BALF: 8.7059 pg/mL and 12.3017 pg/mL and 9.398 pg/mL and 5.239 pg/mL and 5.021 pg/mL and 15.24 pg/mL
CXCL1; 96 h
  CXCL1 in BALF: 47.9583 pg/mL and 40.7995 pg/mL and 44.8333 pg/mL and 37.1973 pg/mL and 31.7608 pg/mL and 43.0428 pg/mL
CXCL1; 192 h
  CXCL1 in BALF: 52.4056 pg/mL and 49.740 pg/mL and 60.3659 pg/mL and 36.7459 pg/mL and 45.7272 pg/mL
[1]; 96 h
  HPS: 2.5 and 4 and 1 and 3
[1]; 192 h
  HPS: 1.5 and 2 and 1 and 8 and 0 and 3 and 4
[1]; from HPS at 192 h
  Recovery: 6.67%
  Response: 86.67%
Mycoplasma pneumoniae; 96 h
  MPcounts in BALF (AV): 4.578 Log10CFU/mL
  MPcounts in BALF: 4.372 Log10CFU/mL and 4.349 Log10CFU/mL and 5.68 Log10CFU/mL and 4.443 Log10CFU/mL and 4.274 Log10CFU/mL and 4.354 Log10CFU/mL
Mycoplasma pneumoniae; 192 h
  MPcounts in BALF (AV): 4.3846 Log10CFU/mL
  MPcounts in BALF: 4.0302 Log10CFU/mL and 4.805 Log10CFU/mL and 4.331 Log10CFU/mL and 4.53 Log10CFU/mL and 4.4765 Log10CFU/mL and 4.136 Log10CFU/mL

## CN(C)[C@@H]1C(O)=C(C(N)=O)C(=O)[C@@]2(O)C(O)=C3C(=O)c4c(O)cccc4[C@@](C)(O)[C@H]3C[C@@H]12 [tetracycline]
[2]; 1×MIC, time 0
  M. pneumoniae count in time-kill curve: 6.522
[2]; 1×MIC, time 12
  M. pneumoniae count in time-kill curve: 6.243
[2]; 1×MIC, time 24
  M. pneumoniae count in time-kill curve: 5.358
[2]; 1×MIC, time 36
  M. pneumoniae count in time-kill curve: 5.0751
[2]; 1×MIC, time 48
  M. pneumoniae count in time-kill curve: 3.623
[2]; 1×MIC, time 60
  M. pneumoniae count in time-kill curve: 4.011
[2]; 1×MIC, time 72
  M. pneumoniae count in time-kill curve: 4.04
[2]; 1–2×MIC, 72 h
  reduction of bacterial counts: 2.38–2.48 log10 CFU/mL
[2]; 2×MIC, time 0
  M. pneumoniae count in time-kill curve: 6.522
[2]; 2×MIC, time 12
  M. pneumoniae count in time-kill curve: 5.562
[2]; 2×MIC, time 24
  M. pneumoniae count in time-kill curve: 5.13
[2]; 2×MIC, time 36
  M. pneumoniae count in time-kill curve: 4.505
[2]; 2×MIC, time 48
  M. pneumoniae count in time-kill curve: 3.395
[2]; 2×MIC, time 60
  M. pneumoniae count in time-kill curve: 3.925
[2]; 2×MIC, time 72
  M. pneumoniae count in time-kill curve: 4.141
[2]; 4×MIC, time 0
  M. pneumoniae count in time-kill curve: 6.522
[2]; 4×MIC, time 12
  M. pneumoniae count in time-kill curve: 5.527
[2]; 4×MIC, time 24
  M. pneumoniae count in time-kill curve: 4.565
[2]; 4×MIC, time 36
  M. pneumoniae count in time-kill curve: 4.182
[2]; 4×MIC, time 48
  M. pneumoniae count in time-kill curve: 3.523
[2]; 4×MIC, time 60
  M. pneumoniae count in time-kill curve: 3.499
[2]; 4×MIC, time 72
  M. pneumoniae count in time-kill curve: 3.057
[2]; 8×MIC, time 0
  M. pneumoniae count in time-kill curve: 6.522
[2]; 8×MIC, time 12
  M. pneumoniae count in time-kill curve: 5.0382
[2]; 8×MIC, time 24
  M. pneumoniae count in time-kill curve: 4.431
[2]; 8×MIC, time 36
  M. pneumoniae count in time-kill curve: 4.11
[2]; 8×MIC, time 48
  M. pneumoniae count in time-kill curve: 3.568
[2]; 8×MIC, time 60
  M. pneumoniae count in time-kill curve: 3.5
[2]; 8×MIC, time 72
  M. pneumoniae count in time-kill curve: 3.462
[2]; 16×MIC, time 0
  M. pneumoniae count in time-kill curve: 6.522
[2]; 16×MIC, time 12
  M. pneumoniae count in time-kill curve: 5.216
[2]; 16×MIC, time 24
  M. pneumoniae count in time-kill curve: 4.191
[2]; 16×MIC, time 36
  M. pneumoniae count in time-kill curve: 3.827
[2]; 16×MIC, time 48
  M. pneumoniae count in time-kill curve: 3.742
[2]; 16×MIC, time 60
  M. pneumoniae count in time-kill curve: 3.715
[2]; 16×MIC, time 72
  M. pneumoniae count in time-kill curve: 3.031
[2]; 32×MIC, time 0
  M. pneumoniae count in time-kill curve: 6.522
[2]; 32×MIC, time 12
  M. pneumoniae count in time-kill curve: 4.677
[2]; 32×MIC, time 24
  M. pneumoniae count in time-kill curve: 4.038
[2]; 32×MIC, time 36
  M. pneumoniae count in time-kill curve: 3.597
[2]; 32×MIC, time 48
  M. pneumoniae count in time-kill curve: 3.571
[2]; 32×MIC, time 60
  M. pneumoniae count in time-kill curve: 3.497
[2]; 32×MIC, time 72
  M. pneumoniae count in time-kill curve: 3.078
[2]; 64×MIC, time 0
  M. pneumoniae count in time-kill curve: 6.522
[2]; 64×MIC, time 12
  M. pneumoniae count in time-kill curve: 4.323
[2]; 64×MIC, time 24
  M. pneumoniae count in time-kill curve: 4.306
[2]; 64×MIC, time 36
  M. pneumoniae count in time-kill curve: 3.779
[2]; 64×MIC, time 48
  M. pneumoniae count in time-kill curve: 3.079
[2]; 64×MIC, time 60
  M. pneumoniae count in time-kill curve: 3.41
[2]; 64×MIC, time 72
  M. pneumoniae count in time-kill curve: 3.079
[2]; static time-kill, 72 h
  concentration at which bactericidal effect was achieved: ≥ 4 × MIC
[3]
  MBC: 3.2 µg/mL (≈ 7.2 µM)
